Test results taken from patent US20030065176A1, “Factor xa inhibitors with aryl-amidines and derivatives, and prodrugs thereof” (priority 2000, published 2003).
Structures can show the parent of a compound that is named as a salt. Where two headings read alike, the source gives them in different places.

Experiments:
human thrombin = human thrombin (Homo sapiens, UniProt P00734); experiment: Thrombin inhibition assay (selectivity against thrombin); type: biochemical; settings: for Ki: read-out: Inhibition ability against thrombin Ki; for Selectivity (thrombin/FXa): ratio of Ki values
Experimental: The FXa inhibiting selectivity of the compound according to the present invention to thrombin is measured as follows. The inhibition effect of the compound of formula 1 to thrombin is measured in Ki value by practicing the same method as the above measuring method of FXa inhibiting activity, and the rate of thrombin/FXa is obtained. At this time, the experimental method of thrombin is the same as that of FXa, except that Chromozyme TH (Tosyl-Gly-Pro-Arg-nitroanilide acetate) is used as the substrate.
Inhibiting ability of a compound according to the present invention against thrombin activity was measured as follows.
In 1.5 mL cuvette, 0.1M tris buffer solution (pH 7.8) comprising 150 mM NaCl, and 0.1% PEG 8000 (molecular weight 8000) was placed by 1160 uL. Chromozyme X was dissolved in dimethylsulfoxide (DMSO) to be 0.1 mM, and diluted with the above buffer solution to be 0.1 mM to prepare the substrate solution. 225 uL of 0.1 mM substrate solution as prepared above was added to cuvette. The compound of the present invention was dissolved in DMSO to be 10 mM, and diluted with the above buffer solution to be 0.1 mM, 0.01 mM and 0.001 mM, respectively, to prepare an inhibitor solution. The inhibitor solution was taken in an amount from 0 to 20 uL, and supplemented with tris buffer solution up to 20 uL of total volume of the solution to add to the cuvette.
15 uL of human thrombin, which was dissolved in the above tris buffer solution to be 0.1 mg/mL, was added to the cuvette having the reaction solution at room temperature to begin enzyme hydrolysis. The amount of para-nitroanilide produced for 2 minutes after adding enzyme was monitored about variation of absorbency at 381 nm to depict continuous spectrum of reaction time to absorbency. The above experiment was repeated for various concentrations of inhibitor to obtain consecutive spectrum.
The initial velocity Vi was calculated from gradient within 30 sec of the reaction time in each spectrum. A graph was depicted for a reciprocal of the initial velocity to inhibitor concentration (1/Vi). A linear equation corresponding to points on the graph was obtained. Thereafter, Ki may be calculated by using enzyme reaction equation from x intercept.

trypsin [1] = target: T1, trypsin (UniProt P00760); experiment: Trypsin inhibition assay (selectivity against trypsin); type: biochemical; settings: read-out: Inhibition ability against trypsin Ki
T1 construct: other: A1: cyclopropyl scaffold; other: A2: pyrrole scaffold; other: A3: bicyclic scaffold; other: A4: cyanophenylalanine scaffold
T1 sequence (P00760 1-246): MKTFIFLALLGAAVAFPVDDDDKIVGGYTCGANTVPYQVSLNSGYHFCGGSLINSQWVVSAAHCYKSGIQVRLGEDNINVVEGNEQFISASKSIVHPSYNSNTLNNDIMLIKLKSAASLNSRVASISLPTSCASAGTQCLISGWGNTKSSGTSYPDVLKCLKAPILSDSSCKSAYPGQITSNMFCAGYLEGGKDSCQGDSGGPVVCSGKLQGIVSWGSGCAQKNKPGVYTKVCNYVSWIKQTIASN
Experimental: (§1) The FXa inhibition selectivity of the compound according to the present invention to trypsin is measured as follows. The inhibition effect of the compound of formula 1 to trypsin is measured in Ki value by practicing the same method as the above measuring method of FXa inhibiting activity, and the rate of trypsin/FXa is obtained. At this time, the experimental method of thrombin is the same as that of FXa, except that N-benzoyl-Val-Gly-Arg-p-nitroanilide hydrochloride is used as the substrate.
(§2) Inhibition activity of a compound according to the present invention was measured by performing the experiment as explained above concerning FXa.
(§3) 20 uM solution of N-benzoyl-Val-Gly-Arg-p-nitroanilide hydrochloride was used as a substrate. An inhibitor solution with various concentrations in the range of 0 to 120 uM was used. Trypsin was dissolved in 0.1N HCl, and supplemented with the above tris buffer solution to be 45 ug/mL. Thereafter, 40 uL of the trypsin solution was used. The remaining procedure and the used amounts of materials (for example, […] of total volume of the reaction solution) and the like were the same as those of the experiment for thrombin. Also, Km was decided in the same method as used in Ki calculation.

[2] = background art; cited from earlier work
FXa = FXa (Homo sapiens, UniProt P00742); settings: background art; cited from earlier work
FXa, sequence (P00742 235-488 limits assumed): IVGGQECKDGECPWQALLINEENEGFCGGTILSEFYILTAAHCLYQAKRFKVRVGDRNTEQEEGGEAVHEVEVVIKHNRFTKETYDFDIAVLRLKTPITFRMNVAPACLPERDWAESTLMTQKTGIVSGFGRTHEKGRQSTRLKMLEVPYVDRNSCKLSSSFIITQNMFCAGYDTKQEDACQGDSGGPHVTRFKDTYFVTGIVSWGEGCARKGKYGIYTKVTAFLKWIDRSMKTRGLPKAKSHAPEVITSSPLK
FXa, sequence (P00742 41-179 limits assumed): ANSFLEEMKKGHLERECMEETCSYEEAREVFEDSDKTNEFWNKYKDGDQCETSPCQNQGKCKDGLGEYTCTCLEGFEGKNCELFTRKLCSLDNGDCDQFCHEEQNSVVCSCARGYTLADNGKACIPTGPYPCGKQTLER

trypsin [3] = experiment: Trypsin inhibition assay (selectivity against trypsin); type: biochemical; settings: ratio of Ki values
Experimental: as §1, §2, §3

[4] = A4: cyanophenylalanine scaffold

## Cc1ccc(S(N)(=O)=O)c(-c2ccc(NC(=O)[C@@H]3C[C@H]3c3cccc(C(=N)N)c3)cc2)c1.O=C(O)C(F)(F)F (relative stereo) [Compound No. A1-3, 4-(2-aminosulfonyl-5-methyl-phenyl)-phenyl trans 2-(3-aminoiminomethylphenyl-cyclopropane-1-carboxamidemonotrifluoroacetic acid salt]
Human thrombin; A1: cyclopropyl scaffold
  Ki: 520 nM
Trypsin [1]; A1: cyclopropyl scaffold
  Ki: 120 nM

## CN1CCN=C1c1cccc(Oc2nc(Oc3cc(C(=N)N)ccc3O)c(F)c(N(C)CC(=O)O)c2F)c1 [ZK-80719]
[2]
  oral absorption: capable of being absorbed orally

## N=C(N)c1cccc(C2=NOC(Cc3nn[nH]n3)(C(=O)Nc3ccc(-c4ccccc4S(N)(=O)=O)cc3)C2)c1 (stereo not drawn) [SK-549]
FXa
  effect as a Fxa inhibitor: excellent effect as a Fxa inhibitor
  selectivity against thrombin, trypsin and the like enzymes: excellent selectivity against thrombin, trypsin and the like enzymes

## 4-(4-Aminoiminomethylbenzyl)-1-(3-aminoiminomethylhydroxy-benzyl)-pyrrole-3-carboxylic acid bis trifluoroacetic acid salt [Compound No. A2-30]
Human thrombin; A2: pyrrole scaffold
  Selectivity (thrombin/FXa): 190

## C[n+]1cccc(-c2ccc(NC(=O)C3=C(c4cccc(C(=N)N)c4)CCC3)cc2)c1.O=C([O-])C(F)(F)F [Compound No. A3-26, 4-(N-methylpyridinium-3-yl)-phenyl 2-(3-aminoiminomethylphenyl)-cyclopenetene-1-carboxamide trifluoroacetic acid salt]
Human thrombin; A3: bicyclic scaffold
  Selectivity (thrombin/FXa): 670
Trypsin [1]; A3: bicyclic scaffold
  Ki: 210 nM
Trypsin [3]; A3: bicyclic scaffold
  Selectivity (trypsin/FXa): 10

## CCOC(=O)c1cn(Cc2cccc(C(=N)N)c2)cc1-c1ccc(-c2ccccc2)cc1.O=C(O)C(F)(F)F [Compound No. A2-52, Ethyl 4-(4-biphenyl)-1-(3-aminoiminomethylbenzyl)-pyrrole-3-carboxylate trifluoroacetic acid salt]
Human thrombin; A2: pyrrole scaffold
  Selectivity (thrombin/FXa): 2.6

## CCOC(=O)c1cn(Cc2ccc(-c3ccccc3)cc2)cc1Cc1cccc(C(=N)N)c1.O=C(O)C(F)(F)F [Compound No. A2-19, Ethyl 4-(3-aminoiminomethylbenzyl)-1-(4-biphenylmethyl)-pyrrole-3-carboxylate trifluoroacetic acid salt]
Human thrombin; A2: pyrrole scaffold
  Selectivity (thrombin/FXa): 0.4

## N=C(N)c1ccc(NC(=O)Nc2ccccc2-c2cccc(C(=N)N)c2)cc1.O=C(O)C(F)(F)F.O=C(O)C(F)(F)F [Compound No. A3-10]
Human thrombin; A3: bicyclic scaffold
  Selectivity (thrombin/FXa): 0.82

## CCOC(=O)c1cn(Cc2ccccc2)cc1Cc1ccc(C(=N)N)cc1.O=C(O)C(F)(F)F [Compound No. A2-1, Ethyl 4-(4-aminoiminomethylbenzyl)-benzyl-pyrrole-3-carboxylate trifluoroacetic acid salt]
Human thrombin; A2: pyrrole scaffold
  Selectivity (thrombin/FXa): 0.1

## N=C(N)c1ccc(O)c(CN2CC[C@H](NS(=O)(=O)c3ccc(-c4cccnc4)s3)C2=O)c1 [RPR-130737]
FXa
  effect as a Fxa inhibitor: excellent effect as a Fxa inhibitor
  selectivity against thrombin, trypsin and the like enzymes: excellent selectivity against thrombin, trypsin and the like enzymes

## Cc1ccc(S(N)(=O)=O)c(-c2ccc(NC(=O)[C@@H]3C[C@H]3c3cccc(C(=N)N)c3)cc2)c1.O=C(O)C(F)(F)F (relative stereo) [Compound No. A1-3]
Human thrombin; A1: cyclopropyl scaffold
  Selectivity (thrombin/FXa): 5
Trypsin [3]; A1: cyclopropyl scaffold
  Selectivity (trypsin/FXa): 0.94

## CC(=N)N1CCC(Oc2ccc(N(Cc3ccc4ccc(C(=N)N)cc4c3)S(=O)(=O)CC(=O)O)cc2)CC1 [YM-60828]
[2]
  oral absorption: capable of being absorbed orally

## Cc1ccc(S(N)(=O)=O)c(-c2ccc(NC(=O)[C@@H]3C[C@@H]3c3cccc(C(=N)N)c3)cc2)c1.O=C(O)C(F)(F)F (relative stereo) [Compound No. A1-4, 4-(2-aminosulfonyl-5-methyl-phenyl)-phenyl cis-2-(3-aminoiminomethylphenyl)-cyclopropane-1-carboxamide mono trfluoroacetic acid salt]
Human thrombin; A1: cyclopropyl scaffold
  Selectivity (thrombin/FXa): 127
  Ki: 380 nM

## 4-(2-cyanophenyl)-phenyl N-carboxymethyl)-3-(3-aminoiminomethylphenyl)alanine amide trifluoroacetic acid salt [Compound No. A4-10]
Human thrombin; [4]
  Selectivity (thrombin/FXa): 14
  Ki: 1700 nM

## N=C(N)c1ccc(-c2ccccc2NC(=O)Nc2cccc(C(=N)N)c2)cc1.O=C(O)C(F)(F)F.O=C(O)C(F)(F)F [Compound No. A3-8]
Human thrombin; A3: bicyclic scaffold
  Selectivity (thrombin/FXa): 1.6

## CC(=N)N1CC[C@H](Oc2ccc(C(Cc3ccc4ccc(C(=N)N)cc4c3)C(=O)O)cc2)C1 (stereo partly drawn) [DX9065a]
[2]
  oral absorption: capable of being absorbed orally

## Ethyl 4-(3-aminoiminomethylbenzyl)-1-aminoiminomethylbenzyl)-pyrrole-3-carboxylate bis trifluoroacetic acid salt [Compound No. A2-37]
Human thrombin; A2: pyrrole scaffold
  Selectivity (thrombin/FXa): 7.0

## CC(C)c1nc2c(C(=O)O)cc(NC3CCN(C(=N)N)CC3)cc2n1Cc1ccc2ccc(C(=N)N)cc2c1 [ZK-807369]
[2]
  oral absorption: capable of being absorbed orally

## N=C(N)c1cccc(-c2ccccc2NS(=O)(=O)Cc2ccccc2)c1.O=C(O)C(F)(F)F [Compound No. A3-21]
Human thrombin; A3: bicyclic scaffold
  Selectivity (thrombin/FXa): 0.73

## N=C(N)c1ccc(Cn2cc(Cc3cccc(C(=N)N)c3)c(C(=O)N3CCOCC3)c2)cc1 [Compound No. A2-40, 4-(3-Aminoiminomethylbenzyl)-1-(4-aminoiminomethylbenzyl)-pyrrole-3-carboxylic acid morphorline amide bis trifluoroacetic acid salt]
Human thrombin; A2: pyrrole scaffold
  Selectivity (thrombin/FXa): 14

## N=C(N)c1cccc(NC(=O)Nc2ccccc2-c2cccc(C(=N)N)c2)c1.O=C(O)C(F)(F)F.O=C(O)C(F)(F)F [Compound No. A3-11]
Human thrombin; A3: bicyclic scaffold
  Selectivity (thrombin/FXa): 6.4

## N#Cc1ccccc1-c1ccc(NC(=O)[C@@H]2C[C@@H]2c2cccc(C(=N)N)c2)cc1.O=C(O)C(F)(F)F (relative stereo) [Compound No. A1-7, 4-(2-cyanophenyl)-phenyl [1,2]-cis, [2,3]-cis-2-(3-aminoiminomethylphenyl)cyclopropane-1-carboxamide mono trifluoroacetic acid salt]
Human thrombin; A1: cyclopropyl scaffold
  Selectivity (thrombin/FXa): 400
  Ki: 2000 nM
Trypsin [1]; A1: cyclopropyl scaffold
  Ki: 200 nM
Trypsin [3]; A1: cyclopropyl scaffold
  Selectivity (trypsin/FXa): 40

## CCOC(=O)c1cn(Cc2ccc(C(=N)N)cc2)cc1Cc1ccc(C(=N)N)cc1.O=C(O)C(F)(F)F.O=C(O)C(F)(F)F [Compound No. A2-42]
Human thrombin; A2: pyrrole scaffold
  Selectivity (thrombin/FXa): 4.7

## CCOC(=O)c1cn(Cc2cccc(C(=N)N)c2)cc1-c1cccc(-c2ccccc2)c1.O=C(O)C(F)(F)F [Compound No. A2-51, Ethyl 4-(3-biphenyl)-1-(3-aminoiminomethylbenzyl)-pyrrole-3-carboxylate trifluoroacetic acid salt]
Human thrombin; A2: pyrrole scaffold
  Selectivity (thrombin/FXa): 0.08

## N=C(N)c1ccc(NC(=O)Nc2ccccc2-c2ccc(C(=N)N)cc2)cc1.O=C(O)C(F)(F)F.O=C(O)C(F)(F)F [Compound No. A3-9]
Human thrombin; A3: bicyclic scaffold
  Selectivity (thrombin/FXa): 0.04
